Assay [1] can be described thus: Antiplatelet aggregatory activity against U46619-induced human platelet aggregation at 6.5 ug/ml by turbidimetric method. It is filed as functional.
Assay [2] concerns Platelet. The assay can be described thus: Antiplatelet aggregatory activity against adenosine diphosphate-induced human platelet aggregation at 13 ug/ml by turbidimetric method. The assay is classed as functional, cell-based.
Assay [3] is described as follows: Antiplatelet aggregatory activity against U46619-induced human platelet aggregation by turbidimetric method. The assay is classed as functional, cell-based.
A short description of assay [4]: Antiplatelet aggregatory activity against U46619-induced human platelet aggregation at 45 ug/ml by turbidimetric method. It is filed as functional.
Assay [5] has as its system Platelet. Put plainly: Antiplatelet aggregatory activity against adenosine diphosphate-induced human platelet aggregation at 44 ug/ml by turbidimetric method. The assay is classed as functional, cell-based.

Activity calls are given as the source filed them. No cut-off for these calls is given here.

A word on the IC50: it is the concentration that gives 50% inhibition. The low end stands for greater potency in that assay, the high end for weaker potency in that assay.

In turn, `CC(=O)O[C@H]1[C@H]2c3c(ccc4c(=O)cc(-c5ccccc5)oc34)O[C@H]2OC1(C)C` displayed an Activity in assay [1] of 85%. Also, the result with Platelet [2] was inactive. For the same compound, the IC50 in assay [3] stood at 12.5 µM.
For `CC(=O)O[C@H]1[C@@H]2c3c(ccc4c(=O)cc(-c5ccccc5)oc34)O[C@@H]2OC1(C)C`, the Activity in assay [4] was determined as 70%. In addition, the outcome in the assay on Platelet [5] was inactive.

Values taken from ChEMBL document CHEMBL1158931, “Pseudosemiglabrin, a platelet aggregation inhibitor from tephrosia semiglabra” (J Nat Prod, 1990).
